Assay results as given in ChEMBL document CHEMBL5233274, “Current Landscape and Future Perspective of Oxazolidinone Scaffolds Containing Antibacterial Drugs” (J Med Chem, 2021).
In brackets after ≈: the same amount, converted by molar mass.

Legend:
[1] = system: Escherichia coli; experiment: Antimicrobial activity against Escherichia coli assessed as inhibition zone at 200 ug/ml incubated for 24 hrs by disk diffusion method; format: functional; details: read-out: IZ
[2] = system: Bacillus subtilis; experiment: Antimicrobial activity against Bacillus subtilis assessed as inhibition zone at 200 ug/ml incubated for 24 hrs by disk diffusion method; format: functional; details: read-out: IZ
[3] = system: Fusarium oxysporum; experiment: Antimicrobial activity against Fusarium oxysporum assessed as inhibition zone at 200 ug/ml incubated for 24 hrs by disk diffusion method; format: functional; details: read-out: IZ
[4] = system: MCF7; experiment: Cytotoxicity against human MCF7 cells assessed as reduction in cell viability by tryphan blue exclusion dye method; format: functional, cell-based
[5] = system: HT-29; experiment: Cytotoxicity against human HT-29 cells assessed as reduction in cell viability by tryphan blue exclusion dye method; format: functional, cell-based
[6] = system: Escherichia coli; experiment: Antibacterial activity against Escherichia coli assessed as zone of inhibition at 100 ug/ml; format: functional; details: read-out: IZ
[7] = system: Bacillus subtilis; experiment: Antibacterial activity against Bacillus subtilis assessed as zone of inhibition at 100 ug/ml; format: functional; details: read-out: IZ
[8] = system: Pseudomonas aeruginosa; experiment: Antibacterial activity against Pseudomonas aeruginosa assessed as inhibition of bacterial growth by CLSI protocol based microdilution assay; format: functional
[9] = system: Listeria monocytogenes; experiment: Antibacterial activity against Listeria monocytogenes assessed as inhibition of bacterial growth by CLSI protocol based microdilution assay; format: functional
[10] = system: Staphylococcus aureus; experiment: Antibacterial activity against Staphylococcus aureus assessed as inhibition of bacterial growth by CLSI protocol based microdilution assay; format: functional
[11] = system: Enterococcus faecalis; experiment: Antibacterial activity against Enterococcus faecalis ATCC 51299 assessed as inhibition of bacterial growth by CLSI protocol based microdilution assay; format: functional
[12] = system: Enterococcus faecalis; experiment: Antibacterial activity against Enterococcus faecalis ATCC 29212 assessed as inhibition of bacterial growth by CLSI protocol based microdilution assay; format: functional
[13] = system: Staphylococcus aureus; experiment: Antibacterial activity against methicillin-resistant Staphylococcus aureus WIS 441 infected in Galleria mellonella larvae incubated for 6 days; format: functional; details: time 6 day
[14] = system: Streptococcus sp.; experiment: Antibacterial activity against wild-type beta-hemolytic Streptococcus sp. by broth dilution assay; format: functional
[15] = system: Streptococcus sp.; experiment: Antibacterial activity against wild-type Streptococcus sp. by broth dilution assay; format: functional
[16] = system: Streptococcus sp.; experiment: Antibacterial activity against linezolid-resistant Streptococcus sp. by broth dilution assay; format: functional
[17] = system: Staphylococcus aureus; experiment: Antibacterial activity against Staphylococcus aureus assessed as fold increase relative to linezolid; format: functional
[18] = system: Enterococcus; experiment: Antibacterial activity against Enterococcus assessed as fold increase relative to linezolid; format: functional

Compound `O=C1NC2(CO1)O/C(=C\c1ccc(Cl)cc1)C(=O)N2CCCNc1ccnc2cc(Cl)ccc12` (stereo not drawn) has a zone of inhibition at 200 µg/mL [1] of 13 mm, a zone of inhibition at 200 µg/mL [2] of 14 mm and a zone of inhibition at 200 µg/mL [3] of 10 mm. For the same compound, the IC50 [4] was 16.1 µg/mL (≈ 32.2 µM) and the IC50 [5] was 32.4 µg/mL (≈ 64.9 µM).

`O=C(N[C@H](CO)[C@H](O)c1ccc([N+](=O)[O-])cc1)C(Cl)Cl` [CHLORAMPHENICOL] was tested, and the zone of inhibition at 100 µg/mL [6] was 38 mm, the zone of inhibition at 100 µg/mL [7] was 37 mm and the MIC [8] was 50 µg/mL (≈ 155 µM). It also gave an MIC [9] of 50 µg/mL (≈ 155 µM), an MIC [10] of 50 µg/mL (≈ 155 µM) and an MIC [11] of 50 µg/mL (≈ 155 µM). The MIC [12] was 50 µg/mL (≈ 155 µM).

For `Cn1nnc(-c2ccc(-c3ccc(N4C[C@H](CO)OC4=O)cc3F)cn2)n1` [TEDIZOLID], the MED [13] was 2 mg/L, the MIC90 [14] was 0.25 µg/mL (≈ 0.675 µM) and the MIC90 [15] was 0.25 µg/mL (≈ 0.675 µM). The MIC90 [16] was 8 µg/mL (≈ 21.6 µM), the “fold change (FC)” value [17] was 4 and the “fold change (FC)” value [18] was 4.
